Values quoted from earlier work as cited in patent US8314112B2 (Novartis AG, priority 2008, dated 2012).

B1: follistatin: "follistatin, an antagonist of activin signalling" (protein, UniProt P19883 30-344, looked up)
Follistatin: GNCWLRQAKNGRCQVLYKTELSKEECCSTGRLSTSWTEEDVNDNTLFKWMIFNGGAPNCIPCKETCENVDCGPGKKCRMNKKNKPRCVCAPDCSNITWKGPVCGLDGKTYRNECALLKARCKEQPELEVQYQGRCKKTCRDVFCPGSSTCVVDQTNNAYCVTCNRICPEPASSEQYLCGNDGVTYSSACHLRKATCLLGRSIGLAYEGKCIKAKSCEDIQCTGGKKCLWDFKVGRGRCSLCDELCPDSKSDEPVCASDNATYASECAMKEAACSSGVLLEVKHSGSCNSISEDTEEEEEDEDQDYSFPISSILEW

Assays:
[1] = tested on: dimethylnitrosamine induced liver fibrosis; details: cited from earlier work
[2] = tested on: bleomycin-induced pulmonary fibrosis; details: bleomycin-treated rats; cited from earlier work
[3] = given therapeutically to rat, 3 weeks treatment

Row | Molecule | inhibition of extracellular matrix deposition [1, 3] | prevention of death rate [1, 3] | side effects ([1]; rat, in vivo) | lung fibrosis [2] | number of macrophages and neutrophils in bronchoalveolar lavage [2]
1 | c1ccc(-c2cc(-c3cn[nH]c3-c3ccccn3)ccn2)cc1 [GW6604] | 60% | 40% | no obvious side effects |  | 
2 | B1 |  |  |  | attenuated lung fibrosis | significantly reduced
